Two substances from patent publication US20240165196A1, “Beta-Lactamase Inhibitors” (VIB VZW, priority 2021, published 2024) can be followed below.

For series [1], the system named is E. coli strain UZ_TEM104. The series is classed as cell-based. The settings on record: peptide alone. The text has this: In order to generate a synthetic amyloid peptide capable of inactivating the TEM-1 beta-lactamase enzyme by capitalizing on its aggregation propensity, we applied a previously developed design pattern for synthetic aggregating sequences. This involves a tandem repeat of the APR, each instance flanked by charged amino acids for solubility and separated by a short peptide linker^19,20,23 (FIG. 2G). Previous work has shown that good bacterial uptake can be achieved using one positively charged arginine residue on the N-terminal side of each APR in the tandem and two arginine residues on the C-terminal side. This has the additional benefit of reducing the self-aggregation of the peptides and increasing their solubility prior to target engagement. As before, we employed a single Pro residue as a linker between the APRs and focused on an APR length of seven, extending shorter APRs to this length by incorporating flanking amino acids unless they were obvious aggregation breakers (Arg, Lys, Asp, Glu or Pro, see Table 1). We obtained these peptides from solid phase synthesis, followed by HPLC purification to a purity judged by reverse phase chromatography of at least 90% (Genscript).
Determination of MIC values using the broth microdilution in the 96-well plate (BD Biosciences, Belgium) according to the EUCAST guideline, which was performed in 96-well polystyrene flat bottom microtiter plates (BD Biosciences). Briefly, a single colony was inoculated into 5 mL Difco™ Mueller Hinton Broth (BD Biosciences Ref 275730) and grown to the end-exponential growth phase in a shaking incubator at 37° C. Cultures were subsequently diluted to an MacFarland (0.5 optical density) then the culture was diluted to reach 10^6 CFU/mL in fresh MHB medium. 50 μl of different concentration of peptides ranging from 128 to 2 μg/mL were serially diluted to the sterile 96-well plate in MHB. 50 μL of the diluted bacteria in MHB were pipetted into 96-well plates to reach the final volume of 100 μL. The bacteria grown with the maximum concentration of carrier and medium were considered as positive and negative controls, respectively. The plates were statically incubated overnight at 37° C. to allow bacterial growth. OD was measured at 590 nm a multipurpose ultraviolet-visible plate reader, and the absorbance of the growth bacteria was measured using absorbance reader. Bacterial growth was also visually inspected and agreed well with the OD reading.

The nature of series [2]: peptide solubility and self-aggregation (DLS, Thioflavin T, electron microscopy, pFTAA). The text has this:
Three replicates are shown for each condition. […] A single representative image is shown. […] Three replicates are shown for each condition. […] A single representative image is shown. […] A single representative image is shown. […] A single representative image is shown.
A DynaPro DLS plate reader instrument (Wyatt, Santa Barbara, CA, USA) equipped with an 830 nm laser source was used to determine the hydrodynamic radius (RH) of the peptide particles. Two hundred microliters of each sample (at 100 or 10 μM, unless stated otherwise) were placed into a flat-bottom 96-well microclear plate (Greiner, Frickenhausen, Germany). The autocorrelation of scattered light intensity at a 32° angle was recorded for 5 s and averaged over 20 recordings to obtain a single data point. The Wyatt Dynamics v7.1 software was used to calculate the hydrodynamic radius by assuming […] particles. The amyloid-specific dye Thioflavin-T (Th-T, Sigma-Aldrich, CAS number 2390-54-7) was used to study the aggregation state of peptides.

In series [3] the test system is primary Human Umbilical Vein Endothelial Cells (HUVEC). The class given is cell-based.
In series [4] the test system is SH-SY5Y. The series is classed as cell-based, human.

In series [1], Ac-RLTAFLHNRRPRLTAFLHNRR-NH2 [TEM3.0] gave an MIC peptide of over 100 µg/mL.

As to Ac-RLTAFLHNRRPRLTAFLRQRR-NH2 [TEM3.2], the “solubility by Dynamic Light Scattering” value in series [2] (50 μM peptide in buffer alone (50 mM Tris pH 8.5, 300 mM NaCl)) is recorded as “soluble in vitro”. Besides, the “aggregation of the peptide in presence of polyphosphate (ThT binding, electron microscopy)” value in series [2] (50 μM peptide, buffer with polyP) is recorded as “amyloid-like aggregation”. The “cytotoxicity (Cell Titer Blue)” value in series [3] and in series [4] was “not cytotoxic” in each case.
